We go through two molecules from patent publication US11318206B2, “Compounds and methods for trans-membrane delivery of molecules” (Aposense Ltd., priority 2014, dated 2022).

Series [1] concerns 3T3-EGFP cells. As to the kind of experiment: Uptake of Conjugate into 3T3-EGFP cells with dipole potential modulators phloretin or 6-KC. The class given is cell-based, mouse. The source says: Phloretin is an inhibitor of the membrane dipole potential and the related IMEF, while 6-keto-cholestanol (6-KC) is a potent enhancer of the IMEF). Therefore, a potential relationship between the effects of the dipole potential modulators phloretin or 6-KC, and the uptake level of the above Conjugate of the Invention (comprising the Apo-Si—C4 MNM, linked to dsDNA, of the sequence: Sense:/5′-MNM/TT/iCy3/[…] (SEQ ID. No. 9); Anti-sense:/5′-MNM/[…] (SEQ ID. No. 10); wherein Cy3 is a red fluorophore); was examined.
One day before the experiment, 3T3-EGFP cells in the exponential growth phase were plated in 6-well plates, at a density of 5×10^5 cells/well, with DMEM complete medium, without antibiotics. Cells were incubated with phloretin 750 μM at 37° C., or 6-KC 100 μM at 37° C., for one hour. The 6-KC was then washed away, while the phloretin was kept in the medium. The Conjugate as described above was diluted in 500 μl/well of Opti-Mem, and added to the above cells, at a final concentration of 40 nM for two hours. Delivery of the Conjugate was evaluated at 2 hours post transfection. At that time point, cells were trypsinized, supplemented with Hank's Buffered Salt Solution (HBSS buffer; Biological Industries, Israel) and centrifuged for 5 min at 1200 rpm. Cells were then re-suspended with Hank's Buffered Salt Solution, and subjected to analysis using FACSAria III Cell Sorter (BD Biosciences, San Jose, Calif., USA), utilizing the Cell Diva software. For each sample, a total of 10^4 events were collected.

Series [2] relates to C26 cells. Briefly: Delivery of 58-mer dsDNA Conjugate into C26 cells, ELISA reader (Example 8). It counts as cell-based, murine. The conditions noted are these: Cy3 58-mer dsDNA, two MNMs. The method, then:
(§1) 3T3 cells and C26 cells were grown and prepared as described in Example 5 above. Cells were incubated for 1, 2, and 24 hours with a Conjugate comprising a 58-mer double-stranded (ds)DNA, linked to Cy3 fluorophore, and lined to two Apo-Si—C4 moieties. Two concentrations of the Conjugate were tested: 40 nM and 100 nM. Analysis comprised fluorescent microscopy and signal quantification by ELISA reader, as described in Example 5 above. An identical 58-mer dsDNA, not linked to E moieties, served as Control.

In series [3] the test system is 3T3 cells. Briefly: Delivery of 58-mer dsDNA Conjugate into 3T3 cells, ELISA reader (Example 8). To be noted: Cy3 58-mer dsDNA, two MNMs. It counts as cell-based, murine. The method, then:
as §1

Series [4] concerns EGFP gene. As to the kind of experiment: EGFP gene silencing in primary culture of hepatocytes of transgenic mice. The class given is cell-based, mouse. The conditions noted are these: EGFP dsRNA, two MNMs, complex with Histone H2A (2:1 Histone/RNA); 40 nM; 72 hours. As for the experimental part:
Double-stranded RNA sequence, as specified in Example 7 was attached to two MNMs according to Formula (VIIa), wherein a=2, and k=1, designated Apo-Si—C4. The conjugate (40 nM) was then incubated with the histone 2A protein (Histone H2A, Molecular Weight 14 kDa; New England Biolabs, Inc.) for 30 minutes (at a 2:1 Histone/RNA ratio) for generation of RNA+MNM+protein complex. The complex was then incubated with cells of primary culture of hepatocytes of transgenic mice, expressing the EGFP gene. After 72 hours, fluorescence of the EGFP signal was quantified utilizing an ELISA reader, as described in Example 7. […] As evident from the results, this complex was capable of effectively crossing the cell membranes, and moreover, exerting a beneficial biological performance in gene silencing. By comparison to the performance of the Control complex, which was devoid of MNMs, the observed results can be attributed solely to the MNMs of the invention.

Series [5] deals with 3T3-EGFP cells. Briefly: Structure/function analysis of polarity: uptake into 3T3-EGFP cells, FACS. It counts as cell-based, mouse. The conditions noted are these: Cy3 58-mer DNA conjugate, 40 nM. The method, then:
For this purpose, two analogous Conjugates were constructed and evaluated: • (i). A Conjugate of dsDNA, linked to E and E′, each has the structure as set forth in Formula (VIIa); designated Apo-Si—C4: […]
Both these MNM moieties were linked to a 58-mer DNA oligonucleotide, labeled with the Cy3-fluorophore, and were subjected to FACS analysis.
One day before the experiment, 3T3-EGFP cells in the exponential growth phase were plated in 6-well plates, at a density of 0.2-0.5×10^5 cells/well, with DMEM complete medium, without antibiotics. Each of the Cy3-labeled oligonucleotides (with or without the MNMs) was diluted in 500 μl/well of Opti-Mem, and added to the cells, at a final concentration of 40 nM. Delivery of the Conjugates was evaluated at 2-24 hours of incubation. Following the incubation period, cells were trypsinized, supplemented with Hank's Buffered Salt Solution (HBSS buffer; Biological Industries, Israel) and centrifuged for 5 min at 1100 rpm. […] Detection and quantification of the Cy3-positive cell population were performed using measurements of the fluorescence intensity in the cells incubated with the Apo-Si-4C Conjugate, relative to that of the cells incubated with the Control A Conjugate.

A short description of series [6]: Stability under oligonucleotide de-protection conditions, HPLC/MS. The class given is physicochemical. The conditions noted are these: ammonium hydroxide at 65° C., samples at 15 minutes, 1 and 2 hours. An excerpt: Synthesis of the Conjugates of the Invention customarily involves protecting the nucleobases of the synthesized oligonucleotides by chemical groups. For example, adenine is often protected by a benzoyl protecting group, guanine by isobutyryl, and cytosine by acetyl. These protecting groups should be removed at the end of synthesis, in order to obtain a functional oligonucleotide. This removal is customarily performed in strong basic conditions. For example, the standard protocol of IDT (Iowa, USA) for removal of the protecting groups during synthesis of oligonucleotides comprises incubation with ammonium hydroxide at 65° C. degrees, for 2 hours. In order to evaluate whether the Compound of the Invention can sustain de-protection in these harsh conditions, a model system was constructed, based on the following Model Compound A, having the following structure:
Two mg of this compound were incubated in the above standard conditions used for deprotection. Samples were drawn after 15 minutes, 1 and 2 hours incubation, and evaluated by HPLC/MS, exploring and analyzing the formation of new peaks. […] Therefore, this analogue of the compound of the Invention manifested stability in these relatively harsh basic conditions.

Entries after “also recorded” stand apart in the source; their conditions may differ.

`[2H]CCCCOc1ccc2c(c1)CCC1C2CCC2(C)C(OCCCOC(C(F)(F)F)(C(F)(F)F)C(F)(F)F)CCC12` (stereo not drawn) [Apo-Si—C4]: in series [1] (40 nM, 2 hours, pre-incubation with 6-KC 100 μM for one hour), the “Uptake by cells after 6-keto-cholestanol (Cy3 fluorescence microscopy)” value is listed as “markedly higher uptake; also recorded: markedly increased uptake”. In addition, the “Cells labeled (FACS)” value in series [1] (Cy3 dsDNA, MNMs, 40 nM, 2 hours, no modulator) turned out to be 68%. Besides, the “Cells manifesting binding of the Conjugate (FACS)” value in series [1] (Cy3 dsDNA, MNMs, 40 nM, 2 hours, phloretin 750 μM) is recorded as 1.5%. Also, the “Uptake by cells after phloretin (flow cytometry)” value in series [1] (pre-incubation with phloretin) is reported as “marked reduction in the uptake”. Besides, the “Ratio of signal intensity of the Conjugate versus control dsDNA devoid of MNMs” value in series [2] (40 nM) is given as 80 fold; in series [2] (100 nM), 72 fold; in series [3] (40 nM) it was 104 fold; in series [3] (100 nM), 101 fold. Moreover, the “Reduction of the EGFP signal vs control complex without MNMs” value in series [4] is recorded as 76%. Also, the “Cy3 fluorescent signal in cells (FACS)” value in series [5] (24 hours of incubation) is reported as “further augmented”; in series [5] (two hours of incubation), “strong Cy-3 fluorescent signal”.

`CCCCCCN(C(=O)Oc1ccccc1)[C@H]1CCSSC1` [Compound A]: the “Degradation under de-protection conditions” value in series [6] is reported as “no signs of degradation”.
